Laboratory results from US20250177362A1, “HETEROCYCLIC GLP-1 AGONISTS” (Gasherbrum Bio, Inc., priority 2022, published 2025).

Target: T1, GLP-1 Receptor (Homo sapiens, UniProt P43220)
T1 construct: host or cells: HEK293/CRE-Luc (HEK293/GLPIR/CRE-LUC)
Experiment: GLP-1R agonist cAMP stimulation assay
Format: cell-based
Details: HEK293/CRE-Luc cell line stably expressing the GLP-1 Receptor; 30 min incubation; cAMP dynamic 2 Kit (Cisbio)
Description: Activation of GLP-1 receptor is known to stimulate cyclic AMP (cAMP) production in cells which indicates primary coupling to the Gas subunit of the G protein heterotrimeric complex.
To optimize functional activity directed toward Gas coupling, a HEK293/CRE-Luc cell line developed by HDB stably expressing the GLP-1 Receptor was used. 200× concentration of compound working solutions were prepared (Agilent Technologies Bravo) with ½ log serial dilution in 384-well Echo LDV plate (Labcyte, Cat #LP-0200). 50 nL/well 200× concentration of compound working solutions were moved to 384-well white low volume plate (Greiner, Cat #784075) using Labcyte ECHO550. 1×10^5 cells/mL HEK293/GLPIR/CRE-LUC (HD Biosciences) cell suspensions prepared with assay buffer [DPBS containing 0.5 mM IBMX (Sigma, Cat #15879) and 0.10% BSA (GENVIEW, Cat #FA016-100g)], 10 μL cell suspensions were added to each well of previous generated assay plate which already contains 50 nL compound at 200× concentration using ThermoFisher Multidrop Combi (1000 cells/well). Seal the plate and incubate at 37° C. with 5% CO2 for 30 min.
After incubation the cAMP assay signal was generated using cAMP dynamic 2 Kit (Cisbio). 5 μL cAMP-d2 working solution was added to each well, followed with 5 μL Anti-cAMP antibody-cryptate working solution added to each well using ThermoFisher Multidrop Combi. Incubate at room temperature for 1 hour protected from light. Read the fluorescence at 665 and 615 nm with Reader PerkinElmer EnVision.

T1 sequence (P43220 24-463, species assumed): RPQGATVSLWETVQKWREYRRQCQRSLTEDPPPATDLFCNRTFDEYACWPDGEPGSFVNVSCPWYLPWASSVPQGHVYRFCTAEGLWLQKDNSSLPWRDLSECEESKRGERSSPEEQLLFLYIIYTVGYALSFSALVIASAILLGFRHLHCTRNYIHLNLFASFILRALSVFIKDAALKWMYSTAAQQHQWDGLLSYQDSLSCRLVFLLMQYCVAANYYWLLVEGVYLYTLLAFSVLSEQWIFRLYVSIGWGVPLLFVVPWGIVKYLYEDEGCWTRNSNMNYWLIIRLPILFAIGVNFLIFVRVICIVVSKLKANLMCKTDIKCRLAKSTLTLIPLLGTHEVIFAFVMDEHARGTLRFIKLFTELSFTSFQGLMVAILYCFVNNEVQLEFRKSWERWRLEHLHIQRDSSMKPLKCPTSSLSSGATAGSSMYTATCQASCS

Row | EC50 [nM] | Compound
1 | 1 to 100 | C[C@]1(c2ccc(Cl)cc2F)Oc2cccc(C3CCN(Cc4ncc(-c5nnc(C(F)(F)F)[nH]5)cc4NC4CCCC4)CC3)c2O1 [F-11, (S)-2-((4-(2-(4-chloro-2-fluorophenyl)-2-methylbenzo[d][1,3]dioxol-4-yl)piperidin-1-yl)methyl)-N-cyclopentyl-5-(5-(trifluoromethyl)-4H-1,2,4-triazol-3-yl)pyridin-3-amine]
2 | 1 to 100 | CC1(c2ccc(Cl)cc2F)Oc2cccc(C3CCN(Cc4ncc(-c5nnc(C(F)(F)F)[nH]5)cc4OC4CCCC4)CC3)c2O1 (stereo not shown) [F-12, 2-((4-(2-(4-chloro-2-fluorophenyl)-2-methylbenzo[d][1,3]dioxol-4-yl)piperidin-1-yl)methyl)-3-(cyclopentyloxy)-5-(5-(trifluoromethyl)-4H-1,2,4-triazol-3-yl)pyridine]
3 | 1 to 100 | CC1(C#N)CCN(c2cc(-c3nnc(C(F)(F)F)[nH]3)cnc2CN2CCC(c3cccc4c3O[C@@](C)(c3ccc(Cl)cc3F)O4)CC2)C1 (stereo partly drawn) [F-13, 1-(2-((4-((S)-2-(4-chloro-2-fluorophenyl)-2-methylbenzo[d][1,3]dioxol-4-yl)piperidin-1-yl)methyl)-5-(5-(trifluoromethyl)-4H-1,2,4-triazol-3-yl)pyridin-3-yl)-3-methylpyrrolidine-3-carbonitrile]
4 | 1 to 100 | CC1(c2ccc(Cl)cc2F)Oc2cccc(C3CCN(Cc4ncc(-c5nnn[nH]5)cc4C4CC4)CC3)c2O1 (stereo not shown) [F-14, 2-((4-(2-(4-chloro-2-fluorophenyl)-2-methylbenzo[d][1,3]dioxol-4-yl)piperidin-1-yl)methyl)-3-cyclopropyl-5-(1H-tetrazol-5-yl)pyridine]
5 | 1 to 100 | C[C@]1(c2ccc(Cl)cc2F)Oc2cccc(C3CCN(Cc4nnc(-c5nnc(C(F)(F)F)[nH]5)cc4N4CCC(O)C4)CC3)c2O1 (stereo partly drawn) [F-15, 1-(3-((4-((S)-2-(4-chloro-2-fluorophenyl)-2-methylbenzo[d][1,3]dioxol-4-yl)piperidin-1-yl)methyl)-6-(5-(trifluoromethyl)-4H-1,2,4-triazol-3-yl)pyridazin-4-yl)pyrrolidin-3-ol]
6 | 1 to 100 | C[C@]1(c2ccc(Cl)cc2F)Oc2cccc(C3CCN(Cc4ncc(-c5nnc(C(F)(F)F)[nH]5)cc4CS(=O)(=O)C4CC4)CC3)c2O1 [F-16]
7 | 1 to 100 | CC1CN(c2cc(-c3nnc(C(F)(F)F)[nH]3)nnc2CN2CCC(c3cccc4c3O[C@@](C)(c3ccc(Cl)cc3F)O4)CC2)CCO1 (stereo partly drawn) [F-17, 4-(3-((4-((S)-2-(4-chloro-2-fluorophenyl)-2-methylbenzo[d][1,3]dioxol-4-yl)piperidin-1-yl)methyl)-6-(5-(trifluoromethyl)-4H-1,2,4-triazol-3-yl)pyridazin-4-yl)-2-methylmorpholine]
8 | 1 to 100 | CC1(C#N)CN(c2cc(-c3nnc(C(F)(F)F)[nH]3)cnc2CN2CCC(c3cccc4c3O[C@@](C)(c3ccc(Cl)cc3F)O4)CC2)C1 [F-18, (S)-1-(2-((4-(2-(4-chloro-2-fluorophenyl)-2-methylbenzo[d][1,3]dioxol-4-yl)piperidin-1-yl)methyl)-5-(5-(trifluoromethyl)-4H-1,2,4-triazol-3-yl)pyridin-3-yl)-3-methylazetidine-3-carbonitrile]
9 | > 100 | C[C@]1(c2ccc(Cl)cc2F)Oc2cccc(C3CCN(Cc4ncc(-c5nnc(C(F)(F)F)[nH]5)cc4C4COC4)CC3)c2O1 [F-19]
10 | > 100 | COc1cc(-c2nnn[nH]2)cnc1CN1CCC(c2cccc3c2OC(C)(c2ccc(Cl)cc2F)O3)CC1 (stereo not shown) [F-20, 2-((4-(2-(4-chloro-2-fluorophenyl)-2-methylbenzo[d][1,3]dioxol-4-yl)piperidin-1-yl)methyl)-3-methoxy-5-(1H-tetrazol-5-yl)pyridine]
